The source of these data is ChEMBL document CHEMBL6127107, “Oleanolic acid derivatives against drug-resistant bacteria and fungi by multi-targets to avoid drug resistance” (Eur J Med Chem, 2024).

The structures appear in SMILES notation. In brackets after ≈: the same amount, converted by molar mass.

Series [1] relates to Staphylococcus aureus. In words: Antimicrobial activity against methicillin-resistant Staphylococcus aureus 003. Type of series: functional.
The next series has as its system Enterococcus faecalis. The series is described as follows: Antimicrobial activity against vancomycin resistant Enterococcus faecalis ATCC 51299. Type of series: functional.
For series [2], the system named is Staphylococcus aureus. The series is described as follows: Antimicrobial activity against methicillin-resistant Staphylococcus aureus 011. Type of series: functional.
The subject of series [3] is Staphylococcus aureus. The series is described as follows: Antimicrobial activity against Staphylococcus aureus 29. Type of series: functional.
Series [4] has as its system Staphylococcus aureus. In words: Antimicrobial activity against Staphylococcus aureus 31. It is filed as functional.
Series [5] concerns Staphylococcus aureus. The series is described as follows: Antimicrobial activity against Staphylococcus aureus 10. Type of series: functional.
Another series deals with Candida albicans. In words: Antimicrobial activity against fluconazole-resistant Candida albicans. It is filed as functional.
Series [6] can be described thus: Hemolytic activity against Mianyang red blood cells (unknown origin). Type of series: toxicity, cell-based, RBC.
The nature of series [7]: Selectivity index, ratio of HC50 for hemolytic activity against Mianyang red blood cells (unknown origin) to MIC for antimicrobial activity against methicillin resistant Staphylococcus aureus 003. It is filed as toxicity, cell-based, RBC. The following applies: read-out: Selectivity Index.
Another series relates to Pseudomonas aeruginosa. In words: Antimicrobial activity against Pseudomonas aeruginosa. Type of series: functional.
For the next series, the system named is Escherichia coli. The series is described as follows: Antimicrobial activity against Escherichia coli. Type of series: functional.

In the case of `CC1(C)CC[C@]2(C(=O)O)CC[C@]3(C)C(=CC[C@@H]4[C@@]5(C)CC[C@H](OCC(O)CCCCCCCCN)C(C)(C)[C@@H]5CC[C@]43C)[C@@H]2C1` (some centres undefined), the MIC turned out to be 8 µg/mL (≈ 12.7 µM) in the series with Staphylococcus aureus [1]; 16 µg/mL (≈ 25.5 µM) against Enterococcus faecalis; 8 µg/mL (≈ 12.7 µM) in the series with Staphylococcus aureus [2]; 8 µg/mL (≈ 12.7 µM) against Staphylococcus aureus [3]; 32 µg/mL (≈ 51 µM) in the series on Staphylococcus aureus [4]; 8 µg/mL (≈ 12.7 µM) in the series on Staphylococcus aureus [5]. Moreover, the MIC against Candida albicans was 32 µg/mL (≈ 51 µM); against Pseudomonas aeruginosa it was greater than 64 µg/mL; in the series with Escherichia coli, greater than 64 µg/mL. The same compound displayed an HC50 in [6] of 25.2 µg/mL. In addition, the selectivity ratio in [7] came to 3.15.
For `CC(=O)O[C@H]1CC[C@]2(C)[C@H]3CC=C4[C@@H]5CC(C)(C)CC[C@]5(C(=O)NCCCCN)CC[C@@]4(C)[C@]3(C)CC[C@H]2C1(C)C`, the MIC was 4 µg/mL (≈ 7.03 µM) in the series on Staphylococcus aureus [1]; 4 µg/mL (≈ 7.03 µM) in the series with Enterococcus faecalis; 2 µg/mL (≈ 3.52 µM) in the series with Staphylococcus aureus [2]; 8 µg/mL (≈ 14.1 µM) against Staphylococcus aureus [3]; 8 µg/mL (≈ 14.1 µM) against Staphylococcus aureus [4]; 8 µg/mL (≈ 14.1 µM) in the series on Staphylococcus aureus [5]. Besides, the MIC against Candida albicans is 4 µg/mL (≈ 7.03 µM); in the series with Pseudomonas aeruginosa, greater than 64 µg/mL; in the series with Escherichia coli, greater than 64 µg/mL. The compound further gave an HC50 in [6] of 65.8 µg/mL. The selectivity ratio in series [7] was determined as 16.5.
`CC(=O)O[C@H]1CC[C@]2(C)[C@H]3CC=C4[C@@H]5CC(C)(C)CC[C@]5(C(=O)NCCCCCCCCNC(=N)N)CC[C@@]4(C)[C@]3(C)CC[C@H]2C1(C)C`: the MIC stood at 4 µg/mL (≈ 6 µM) with Staphylococcus aureus [1]; 8 µg/mL (≈ 12 µM) in the series with Enterococcus faecalis; 2 µg/mL (≈ 3 µM) with Staphylococcus aureus [2]; 4 µg/mL (≈ 6 µM) with Staphylococcus aureus [3]; 16 µg/mL (≈ 24 µM) against Staphylococcus aureus [4]; 4 µg/mL (≈ 6 µM) in the series on Staphylococcus aureus [5]. In addition, the MIC against Candida albicans is 16 µg/mL (≈ 24 µM); against Pseudomonas aeruginosa, greater than 64 µg/mL; against Escherichia coli, greater than 64 µg/mL. In addition, in series [6], the HC50 was 232 µg/mL. For the same compound, the selectivity ratio in series [7] was 57.9.
Regarding `CC1(C)CC[C@]2(C(=O)O)CC[C@]3(C)C(=CC[C@@H]4[C@@]5(C)CC[C@H](OC(=O)c6ccccc6C(=O)O)C(C)(C)[C@@H]5CC[C@]43C)[C@@H]2C1`, the MIC in the series with Staphylococcus aureus [1] stood at 32 µg/mL (≈ 52.9 µM); in the series on Enterococcus faecalis, 16 µg/mL (≈ 26.5 µM); against Staphylococcus aureus [2], 32 µg/mL (≈ 52.9 µM); against Staphylococcus aureus [3], 32 µg/mL (≈ 52.9 µM); against Staphylococcus aureus [4] it was 64 µg/mL (≈ 106 µM); in the series with Staphylococcus aureus [5] it was 16 µg/mL (≈ 26.5 µM). Besides, the MIC against Candida albicans is 8 µg/mL (≈ 13.2 µM); against Pseudomonas aeruginosa, greater than 64 µg/mL; in the series on Escherichia coli, greater than 64 µg/mL. Also, in series [6], the HC50 was greater than 1020 µg/mL. Also, in series [7], the selectivity ratio is greater than 32.
Compound `OC(Cn1cncn1)(Cn1cncn1)c1ccc(F)cc1F` [FLUCONAZOLE] came in with an MIC against Candida albicans greater than 128 µg/mL. In [6], this compound showed an HC50 greater than 256 µg/mL.
With `CC1(C)CC[C@]2(C(=O)O)CC[C@]3(C)C(=CC[C@@H]4[C@@]5(C)CC[C@H](OCC(O)CN6CCCCC6)C(C)(C)[C@@H]5CC[C@]43C)[C@@H]2C1` (some centres undefined), the MIC in the series on Staphylococcus aureus [1], in the series on Enterococcus faecalis, in the series on Staphylococcus aureus [2], in the series on Staphylococcus aureus [3], in the series with Staphylococcus aureus [4] and against Staphylococcus aureus [5] was greater than 64 µg/mL in each case. Moreover, the MIC in the series on Candida albicans, in the series on Pseudomonas aeruginosa and with Escherichia coli was greater than 64 µg/mL each time.
For `CCCCCCCCCOC(=O)[C@]12CCC(C)(C)C[C@H]1C1=CC[C@@H]3[C@@]4(C)CC[C@H](O)C(C)(C)[C@@H]4CC[C@@]3(C)[C@]1(C)CC2`, the MIC in the series with Staphylococcus aureus [1], with Enterococcus faecalis, in the series with Staphylococcus aureus [2], in the series with Staphylococcus aureus [3], against Staphylococcus aureus [4] and in the series with Staphylococcus aureus [5] was greater than 64 µg/mL throughout. In addition, the MIC with Candida albicans, against Pseudomonas aeruginosa and in the series with Escherichia coli was greater than 64 µg/mL in each case.
On to `CC1(C)CC[C@]2(C(=O)O)CC[C@]3(C)C(=CC[C@@H]4[C@@]5(C)CC[C@H](OC(=O)c6ccccc6)C(C)(C)[C@@H]5CC[C@]43C)[C@@H]2C1`, for which the MIC against Staphylococcus aureus [1], against Enterococcus faecalis, against Staphylococcus aureus [2], against Staphylococcus aureus [3], with Staphylococcus aureus [4] and in the series on Staphylococcus aureus [5] was greater than 64 µg/mL each time. Besides, the MIC in the series with Candida albicans, against Pseudomonas aeruginosa and against Escherichia coli was greater than 64 µg/mL throughout.
`CC(=O)O[C@H]1CC[C@]2(C)[C@H]3CC=C4[C@@H]5CC(C)(C)CC[C@]5(C(=O)N5CCCCC5)CC[C@@]4(C)[C@]3(C)CC[C@H]2C1(C)C`: the MIC against Staphylococcus aureus [1], with Enterococcus faecalis, against Staphylococcus aureus [2], with Staphylococcus aureus [3], against Staphylococcus aureus [4] and in the series with Staphylococcus aureus [5] was greater than 64 µg/mL in each case. The MIC in the series with Candida albicans, against Pseudomonas aeruginosa and with Escherichia coli was greater than 64 µg/mL each time.
As for `CC1(C)CC[C@]2(C(=O)O)CC[C@]3(C)C(=CC[C@@H]4[C@@]5(C)CC[C@H](O)C(C)(C)[C@@H]5CC[C@]43C)[C@@H]2C1` [OLEANOLIC_ACID], the MIC against Staphylococcus aureus [1] is 64 µg/mL (≈ 140 µM); against Enterococcus faecalis it was 64 µg/mL (≈ 140 µM); in the series with Staphylococcus aureus [2], greater than 64 µg/mL; with Staphylococcus aureus [3] it was 64 µg/mL (≈ 140 µM); against Staphylococcus aureus [4] it was 32 µg/mL (≈ 70.1 µM); with Staphylococcus aureus [5] it was 64 µg/mL (≈ 140 µM). The same compound came in with an MIC against Candida albicans greater than 64 µg/mL. This compound also yielded an HC50 in series [6] greater than 1020 µg/mL. Besides, in [7], the selectivity ratio is greater than 16.
For the compound `CN(C)CC(O)CO[C@H]1CC[C@]2(C)[C@H]3CC=C4[C@@H]5CC(C)(C)CC[C@]5(C(=O)O)CC[C@@]4(C)[C@]3(C)CC[C@H]2C1(C)C` (some centres undefined), the MIC against Staphylococcus aureus [1], in the series with Enterococcus faecalis, in the series on Staphylococcus aureus [2], with Staphylococcus aureus [3], against Staphylococcus aureus [4] and in the series with Staphylococcus aureus [5] was greater than 64 µg/mL throughout. Moreover, the MIC in the series with Candida albicans, in the series on Pseudomonas aeruginosa and in the series with Escherichia coli was greater than 64 µg/mL throughout.
As to `CC1(C)CC[C@]2(C(=O)O)CC[C@]3(C)C(=CC[C@@H]4[C@@]5(C)CC[C@H](OCC(O)CNCc6ccoc6)C(C)(C)[C@@H]5CC[C@]43C)[C@@H]2C1` (some centres undefined), the MIC in the series on Staphylococcus aureus [1], against Enterococcus faecalis, in the series on Staphylococcus aureus [2], in the series on Staphylococcus aureus [3], with Staphylococcus aureus [4] and against Staphylococcus aureus [5] was greater than 64 µg/mL in each case. In addition, the MIC against Candida albicans, against Pseudomonas aeruginosa and against Escherichia coli was greater than 64 µg/mL throughout.
Turning to `CCC(=O)O[C@H]1CC[C@]2(C)[C@H]3CC=C4[C@@H]5CC(C)(C)CC[C@]5(C(=O)O)CC[C@@]4(C)[C@]3(C)CC[C@H]2C1(C)C`, the MIC in the series on Staphylococcus aureus [1], in the series on Enterococcus faecalis, with Staphylococcus aureus [2], against Staphylococcus aureus [3], in the series on Staphylococcus aureus [4] and against Staphylococcus aureus [5] was greater than 64 µg/mL throughout. For the same compound, the MIC against Candida albicans, in the series on Pseudomonas aeruginosa and with Escherichia coli was greater than 64 µg/mL in each case.
In the case of `CC(=O)O[C@H]1CC[C@]2(C)[C@H]3CC=C4[C@@H]5CC(C)(C)CC[C@]5(C(=O)N(C)C)CC[C@@]4(C)[C@]3(C)CC[C@H]2C1(C)C`, the MIC against Staphylococcus aureus [1], against Enterococcus faecalis, against Staphylococcus aureus [2], in the series with Staphylococcus aureus [3], against Staphylococcus aureus [4] and against Staphylococcus aureus [5] was greater than 64 µg/mL throughout. Moreover, the MIC in the series with Candida albicans, against Pseudomonas aeruginosa and with Escherichia coli was greater than 64 µg/mL in each case.
Regarding `CC1(C)S[C@@H]2[C@H](NC(=O)[C@H](N)c3ccccc3)C(=O)N2[C@H]1C(=O)O` [AMPICILLIN], the MIC is greater than 128 µg/mL in the series with Staphylococcus aureus [1]; 2 µg/mL (≈ 5.72 µM) against Enterococcus faecalis; greater than 128 µg/mL in the series on Staphylococcus aureus [2]; 2 µg/mL (≈ 5.72 µM) against Staphylococcus aureus [3]; 2 µg/mL (≈ 5.72 µM) with Staphylococcus aureus [4]; 2 µg/mL (≈ 5.72 µM) against Staphylococcus aureus [5]. Moreover, the HC50 in series [6] was greater than 256 µg/mL.
With `CCCCCCC(=O)O[C@H]1CC[C@]2(C)[C@H]3CC=C4[C@@H]5CC(C)(C)CC[C@]5(C(=O)O)CC[C@@]4(C)[C@]3(C)CC[C@H]2C1(C)C`, the MIC against Staphylococcus aureus [1], against Enterococcus faecalis, in the series with Staphylococcus aureus [2], against Staphylococcus aureus [3], in the series with Staphylococcus aureus [4] and with Staphylococcus aureus [5] was greater than 64 µg/mL throughout. In addition, the MIC against Candida albicans, against Pseudomonas aeruginosa and in the series on Escherichia coli was greater than 64 µg/mL each time.
With `CCCCCCCCC(=O)O[C@H]1CC[C@]2(C)[C@H]3CC=C4[C@@H]5CC(C)(C)CC[C@]5(C(=O)O)CC[C@@]4(C)[C@]3(C)CC[C@H]2C1(C)C`, the MIC with Staphylococcus aureus [1], in the series on Enterococcus faecalis, with Staphylococcus aureus [2], with Staphylococcus aureus [3], in the series with Staphylococcus aureus [4] and in the series on Staphylococcus aureus [5] was greater than 64 µg/mL each time. In addition, the MIC against Candida albicans, against Pseudomonas aeruginosa and with Escherichia coli was greater than 64 µg/mL in each case.
Take `CCCC(=O)O[C@H]1CC[C@]2(C)[C@H]3CC=C4[C@@H]5CC(C)(C)CC[C@]5(C(=O)O)CC[C@@]4(C)[C@]3(C)CC[C@H]2C1(C)C`: the MIC in the series on Staphylococcus aureus [1], against Enterococcus faecalis, against Staphylococcus aureus [2], in the series with Staphylococcus aureus [3], in the series with Staphylococcus aureus [4] and against Staphylococcus aureus [5] was greater than 64 µg/mL throughout. The MIC against Candida albicans, in the series on Pseudomonas aeruginosa and in the series with Escherichia coli was greater than 64 µg/mL throughout.
Compound `C[C@@H]1[C@H](O)[C@@H](C)/C=C/C=C/C=C/C=C/C=C/C=C/C=C/[C@H](O[C@@H]2O[C@H](C)[C@@H](O)[C@H](N)[C@@H]2O)C[C@@H]2O[C@](O)(C[C@@H](O)C[C@@H](O)[C@H](O)CC[C@@H](O)C[C@@H](O)CC(=O)O[C@H]1C)C[C@H](O)[C@H]2C(=O)O` [AMPHOTERICIN B] gave an MIC against Candida albicans of 1 µg/mL (≈ 1.08 µM). For the same compound, the HC50 in series [6] is 29.2 µg/mL. Further, the selectivity ratio in [7] came to 29.2.
